Measured values from DBAASP.
Converted amounts (≈) assume the structure as drawn.

Experiments:
Assay in all cases: ≥ marks a high value that may be exact or a test limit, other limits are often not marked, values filed in µg/mL are converted to µM
[1] = test system: Escherichia coli ATCC 25922
[2] = test system: Klebsiella pneumoniae ATCC 700603
[3] = test system: Pseudomonas aeruginosa ATCC 27853
[4] = test system: Staphylococcus aureus ATCC 29213
[5] = test system: Staphylococcus aureus ATCC 33591
[6] = test system: Staphylococcus aureus ATCC 700699
Escherichia coli K-12 = test system: Escherichia coli K-12
[7] = test system: Staphylococcus aureus ATCC 25923
[8] = test system: Staphylococcus aureus ATCC 43300
Staphylococcus aureus = test system: Staphylococcus aureus
Escherichia coli BW25113 = test system: Escherichia coli BW25113
[9] = test system: Escherichia coli ATCC 11775
[10] = test system: Staphylococcus aureus ATCC 12600
[11] = test system: Staphylococcus aureus ATCC BAA-1556
[12] = test system: Enterococcus faecalis ATCC 29212
[13] = test system: Salmonella enterica subsp. enterica serovar Pullorum C79-13
[14] = test system: Salmonella enterica subsp. enterica serovar Typhimurium C77-31
[15] = test system: Staphylococcus epidermidis ATCC 12228
Streptococcus mutans = test system: Streptococcus mutans

CC[C@H](C)[C@H](NC(=O)[C@H](CC(=O)O)NC(=O)[C@H](CCCCN)NC(=O)[C@H](C)NC(=O)[C@H](C)NC(=O)CNC(=O)[C@H](CCCCN)NC(=O)[C@H](CC(C)C)NC(=O)[C@@H](NC(=O)[C@H](CC(=O)O)NC(=O)[C@@H](NC(=O)[C@H](C)NC(=O)CN)C(C)C)[C@@H](C)CC)C(=O)N[C@@H](C)C(=O)NCC(=O)N[C@@H](Cc1cnc[nH]1)C(=O)N[C@@H](CC(C)C)C(=O)N[C@@H](C)C(=O)N[C@@H](CO)C(=O)N[C@@H](CCCCN)C(=O)N[C@H](C(=O)N[C@@H](CCSC)C(=O)N[C@@H](CC(N)=O)C(=O)N[C@@H](CCCCN)C(=O)N[C@@H](CC(C)C)C(N)=O)C(C)C [GAVDILKGAAKDIAGHLASKVMNKL] was tested, and the MIC [1] was > 100 µM, the MIC [2] was > 100 µM and the MIC [3] was > 100 µM. The MIC [4] was > 100 µM, the MIC [5] was ≥ 100 µM and the MIC [6] was ≥ 100 µM.

In the case of CC[C@H](C)[C@H](N)C(=O)NCC(=O)N[C@@H](CCCCN)C(=O)N[C@@H](CCC(=O)O)C(=O)N[C@@H](Cc1ccccc1)C(=O)N[C@@H](CCCCN)C(=O)N[C@@H](CCCNC(=N)N)C(=O)N[C@H](C(=O)N[C@H](C(=O)N[C@@H](CCC(N)=O)C(=O)N[C@@H](CCCNC(=N)N)C(=O)N[C@H](C(=O)N[C@@H](CCCCN)C(=O)N[C@@H](CC(=O)O)C(=O)N[C@@H](Cc1ccccc1)C(=O)N[C@@H](CC(C)C)C(=O)N[C@@H](CCCNC(=N)N)C(=O)N[C@@H](CC(N)=O)C(=O)N[C@@H](CC(C)C)C(=O)N[C@H](C(=O)N1CCC[C@H]1C(=O)N[C@@H](CCCNC(=N)N)C(=O)N[C@H](C(=O)N[C@@H](CCC(=O)O)C(=O)N[C@H](C=O)CO)[C@@H](C)O)C(C)C)[C@@H](C)CC)C(C)C)[C@@H](C)CC [IGKEFKRIVQRIKDFLRNLVPRTES], the MIC (Escherichia coli K-12) is reported as ≥ 80 µM, the MIC [7] is reported as 168 µM (≈ 509 µg/mL) and the MIC [8] is reported as 168 µM (≈ 509 µg/mL). For the same compound, the MIC [6] was ≥ 336 µM and the MIC (Staphylococcus aureus) was 168 µM (≈ 509 µg/mL).

With CC[C@H](C)[C@H](NC(=O)[C@@H]1CCCN1C(=O)[C@H](CCCN=C(N)N)NC(=O)[C@H](CCCN=C(N)N)NC(=O)[C@H](Cc1ccccc1)NC(=O)[C@@H](N)CCCN=C(N)N)C(=O)N[C@@H](CCCN=C(N)N)C(=O)N[C@@H](CCCN=C(N)N)C(=O)N[C@@H](CCCN=C(N)N)C(=O)N1CCC[C@H]1C(=O)N[C@H](C(=O)N[C@@H](CCCN=C(N)N)C(=O)N1CCC[C@H]1C(=O)N1CCC[C@H]1C(=O)N[C@@H](Cc1ccccc1)C(=O)N[C@@H](Cc1c[nH]c2ccccc12)C(=O)N[C@@H](CCCN=C(N)N)C(=O)O)[C@@H](C)CC [RFRRPIRRRPIRPPFWR] the MIC (Escherichia coli BW25113) was 8 µM (≈ 18.9 µg/mL).

CC[C@H](C)[C@H](NC(=O)[C@@H]1CCCN1C(=O)[C@H](Cc1c[nH]c2ccccc12)NC(=O)[C@H](CCCN=C(N)N)NC(=O)[C@H](Cc1c[nH]c2ccccc12)NC(=O)[C@@H](N)CCCN=C(N)N)C(=O)N[C@@H](CCCN=C(N)N)C(=O)N[C@@H](CCCN=C(N)N)C(=O)N[C@@H](CCCN=C(N)N)C(=O)N1CCC[C@H]1C(=O)N[C@H](C(=O)N[C@@H](CCCN=C(N)N)C(=O)N1CCC[C@H]1C(=O)N1CCC[C@H]1C(=O)N[C@@H](Cc1c[nH]c2ccccc12)C(=O)N[C@@H](Cc1ccc(O)cc1)C(=O)N[C@@H](CCCN=C(N)N)C(=O)O)[C@@H](C)CC [RWRWPIRRRPIRPPWYR] was tested, and the MIC (Escherichia coli BW25113) was 4 µM (≈ 9.79 µg/mL).

With CC(C)C[C@H](NC(=O)[C@H](C)NC(=O)[C@H](CC(C)C)NC(=O)[C@@H]1CCCN1C(=O)[C@H](Cc1ccccc1)NC(=O)[C@@H](N)Cc1ccccc1)C(=O)N[C@@H](CC(C)C)C(=O)N[C@H]1CSSC[C@@H](C(=O)O)NC(=O)[C@H](CCCCN)NC(=O)[C@H](CCCCN)NC(=O)[C@H](Cc2ccccc2)NC(=O)[C@H](C(C)C)NC(=O)[C@H](CCCCN)NC1=O [FFPLALLCKVFKKC] the MIC [9] was 25 µM (≈ 41.4 µg/mL) and the MIC [10] was ≥ 100 µM.

For NCCCC[C@H](NC(=O)[C@H](Cc1c[nH]c2ccccc12)NC(=O)[C@H](Cc1c[nH]c2ccccc12)NC(=O)[C@H](CCCCN)NC(=O)[C@@H](N)CCCN=C(N)N)C(N)=O [RKWWK], the MIC [1] was > 77.8 µM and the MIC [10] was ≥ 77.8 µM.

For CC(C)C[C@H](NC(=O)[C@H](CC(C)C)NC(=O)[C@H](CC(C)C)NC(=O)[C@H](CC(C)C)NC(=O)[C@H](CC(C)C)NC(=O)[C@H](CCCCN)NC(=O)[C@H](CC(C)C)NC(=O)[C@@H](N)CC(C)C)C(=O)N[C@@H](CCCCN)C(N)=O [LLKLLLLLK], the MIC [11] was ≥ 100 µM.

With CC[C@H](C)[C@H](NC(=O)[C@H](Cc1ccccc1)NC(=O)[C@H](CS)NC(=O)[C@@H](NC(=O)[C@H](CO)NC(=O)[C@@H](N)Cc1ccc(O)cc1)[C@@H](C)O)C(=O)N[C@@H](CCSC)C(=O)NCC(=O)NCC(=O)NCC(=O)N[C@@H](Cc1c[nH]c2ccccc12)C(=O)N[C@@H](CCCCN)C(=O)N[C@@H](Cc1c[nH]c2ccccc12)C(=O)N[C@@H](CCCCN)C(=O)N[C@@H](Cc1c[nH]c2ccccc12)C(=O)N[C@@H](CCC(=O)O)C(=O)N[C@@H](CC(N)=O)C(=O)NCC(=O)N[C@@H](CCCCN)C(=O)N[C@@H](Cc1c[nH]c2ccccc12)C(=O)N[C@@H](CCCCN)C(=O)N[C@@H](Cc1c[nH]c2ccccc12)C(=O)N[C@@H](CCCCN)C(=O)N[C@@H](Cc1c[nH]c2ccccc12)C(=O)O [YSTCFIMGGGWKWKWENGKWKWKW] the MIC [12] was > 128 µM, the MIC [1] was 32 µM (≈ 99 µg/mL) and the MIC [13] was ≥ 128 µM. The MIC [14] was ≥ 128 µM, the MIC [4] was > 128 µM and the MIC [15] was > 128 µM.

With NCCCC[C@H](NC(=O)CNC(=O)[C@H](CC(N)=O)NC(=O)[C@H](CCC(=O)O)NC(=O)[C@H](Cc1c[nH]c2ccccc12)NC(=O)[C@H](CCCCN)NC(=O)[C@H](Cc1c[nH]c2ccccc12)NC(=O)[C@H](CCCCN)NC(=O)[C@@H](N)Cc1c[nH]c2ccccc12)C(=O)N[C@@H](Cc1c[nH]c2ccccc12)C(=O)N[C@@H](CCCCN)C(=O)N[C@@H](Cc1c[nH]c2ccccc12)C(=O)N[C@@H](CCCCN)C(=O)N[C@@H](Cc1c[nH]c2ccccc12)C(=O)O [WKWKWENGKWKWKW] the MIC [12] was 64 µM (≈ 133 µg/mL), the MIC [1] was 2 µM (≈ 4.15 µg/mL) and the MIC [13] was 8 µM (≈ 16.6 µg/mL). For the same compound, the MIC [14] was ≥ 32 µM, the MIC [4] was 32 µM (≈ 66.4 µg/mL) and the MIC [15] was 32 µM (≈ 66.4 µg/mL).

CC[C@H](C)[C@H](NC(=O)[C@@H]1CCCN1C(=O)[C@H](CCCN=C(N)N)NC(=O)[C@H](CCCN=C(N)N)NC(=O)[C@H](Cc1c[nH]c2ccccc12)NC(=O)[C@@H](N)CCCN=C(N)N)C(=O)N[C@@H](CCCN=C(N)N)C(=O)N[C@@H](CCCN=C(N)N)C(=O)N[C@@H](CCCN=C(N)N)C(=O)N1CCC[C@H]1C(=O)N[C@H](C(=O)N[C@@H](CCCN=C(N)N)C(=O)N1CCC[C@H]1C(=O)N1CCC[C@H]1C(=O)N[C@@H](Cc1ccccc1)C(=O)N[C@@H](Cc1ccc(O)cc1)C(=O)N1CCC[C@H]1C(=O)O)[C@@H](C)CC [RWRRPIRRRPIRPPFYP] showed an MIC (Escherichia coli BW25113) of 8 µM (≈ 18.6 µg/mL).

CC[C@H](C)[C@H](NC(=O)[C@H](CC(=O)O)NC(=O)[C@H](CCCCN)NC(=O)[C@H](CC(C)C)NC(=O)[C@H](C)NC(=O)CNC(=O)[C@H](CCCCN)NC(=O)[C@H](CC(C)C)NC(=O)[C@@H](NC(=O)[C@H](CC(=O)O)NC(=O)[C@@H](NC(=O)[C@@H](NC(=O)CN)C(C)C)C(C)C)[C@@H](C)CC)C(=O)N[C@@H](C)C(=O)NCC(=O)N[C@@H](Cc1cnc[nH]1)C(=O)N[C@@H](CC(C)C)C(=O)N[C@@H](C)C(=O)N[C@@H](CO)C(=O)N[C@@H](CCCCN)C(=O)N[C@H](C(=O)N[C@@H](CCSC)C(=O)N[C@@H](CC(N)=O)C(=O)N[C@@H](CCCCN)C(=O)N[C@@H](CC(C)C)C(N)=O)C(C)C [GVVDILKGALKDIAGHLASKVMNKL] was tested, and the MIC [1] was 12.5 µM (≈ 32.4 µg/mL), the MIC [2] was 50 µM (≈ 130 µg/mL) and the MIC [3] was 50 µM (≈ 130 µg/mL). The MIC [4] was 100 µM (≈ 259 µg/mL), the MIC [5] was 25 µM (≈ 64.8 µg/mL) and the MIC [6] was ≥ 50 µM.

Compound CC(C)C[C@H](NC(=O)[C@H](CCCN=C(N)N)NC(=O)[C@H](CCCCN)NC(=O)[C@H](C)N)C(=O)N[C@@H](CC(C)C)C(=O)N[C@@H](CCCCN)C(=O)N[C@H](C(=O)N[C@@H](CC(C)C)C(=O)N[C@@H](CCCCN)C(=O)N[C@@H](CCCN=C(N)N)C(=O)N[C@@H](Cc1ccccc1)C(N)=O)C(C)C [AKRLLKVLKRF] has an MIC (Streptococcus mutans) of 16.5 µM (≈ 22.6 µg/mL).
